Patent US20160243112A1, “TREATMENTS FOR ALZHEIMER'S RELATED DISEASES AND DISORDERS” (Alkermes, Inc., priority 2015, published 2016)
Where a name gives a salt, the structure may show the parent alone.

Assays:
[1] = molecular target: T1, cloned human NMDA receptor (NR1/NR2A) channel (Homo sapiens, UniProt Q05586+Q12879); test: FLIPR Ca++ flux assay in NR1/NR2A expressing HEK cells; assay type: cell-based
T1 construct: expressed in transfected cells; host or cells: HEK293
Experimental: (§1) The NMDA receptor is an ionotropic glutamate receptor that forms a cation-selective channel. Test articles were assessed for their ability to inhibit calcium flux produced by a positive control agonist (100 μM Glutamic acid+20 μM Glycine) in cloned human NMDA receptor (NR1/NR2A) channel (encoded by the GRIN1 and GRIN2A genes) expressing HEK293 cells. A Fluo-8 calcium kit and a Fluorescence Imaging Plate Reader ([…]™) instrument was used to measure calcium flux. The potential antagonist effect of each test article was measured at eight concentrations (0.1, 0.3, 1, 3, 10, 30, 100, 300 μM; n=4 per concentration) after activating NR1/NR2A channel with the positive control agonist (100 μM Glutamic acid+20 μM Glycine).
as §1

[2] = molecular target: T2, PCP binding site of NMDA receptors (Rattus norvegicus, UniProt P35439); test: CEREP NMDA PCP site binding study (PCP antagonist radioligand assay #0124)
T2 construct: NMDA receptors in rat cerebral cortex cells; tissue CEREP #0124; host or cells: rat cerebral cortex
Experimental: The specific ligand binding to the receptors is defined as the difference between the total binding and the nonspecific binding determined in the presence of an excess of unlabelled ligand. […] The inhibition constants (Ki) were calculated using the Cheng Prusoff equation (Ki=IC50/(1+(L/KD)), where L=concentration of radioligand in the assay, and KD=affinity of the radioligand for the receptor).

[3] = system: olfactory bulbectomized (OBX) rat; test: Efficacy study in an animal model of agitation: open field locomotor activity in the OBX rat; assay type: in vivo; settings: OBX rats; single s.c. injection 30 min before test; Compound-1 10 and 30 mg/kg
Experimental: The objective of this study is to assess the efficacy of Compound-1 in an animal model of agitation: the olfactory bulbectomized (OBX) rat.
(§2) The study design included 4 treatment groups. Rats were assigned to their respective treatments by stratifying into groups based on body weight and arena. The experiment was carried out on a single day.
(§3) Forty-four male Sprague Dawley rats (Charles River, Raleigh, N.C.) were used for this study. Rats were single housed and weighed 200-225 g upon receipt. All rats were maintained on a 12 h light-12 h dark cycle with free access to food and water. Husbandry was conducted in accordance with the 2011 Guide for the Care and Use of Laboratory Animals (NRC, 2011).
(§4) Subcutaneous doses were administered via flank injection at a dose volume of 1 mL/kg 30 minutes before behavioral testing. Dose volumes were adjusted for the weight of the animal on the day of the experiment.
(§5) OBX rats and their weight-matched non-surgery controls were allowed to acclimate/recover from the surgical procedure for at least 4 weeks to permit the onset of the behavioral deficit. Rats were handled periodically throughout this acclimation period to prevent excessive aggression. […]
The following parameters were assayed: • 1. […] The behavior was recorded and analyzed by an automated tracking system (Med Associates). […]

[4] = system: olfactory bulbectomized (OBX) rat; test: Efficacy study in an animal model of anxiety: marble burying in the OBX rat; assay type: in vivo; settings: OBX rats; 10 mg/kg single s.c. injection 30 min before 20 min test
Experimental: Rodents will also bury non-aversive unconditioned objects, such as food pellets and glass marbles; an effect reversible by compounds that have anxiolytic efficacy.
as §2
as §3, with “Thirty-two” for “Forty-four”
as §4, §5
Marbles were considered “buried” if more than ⅔ surface was not visible. The number of uncovered/buried marbles was recorded and photographed by experimenter blind to drug treatment. […]

[5] = system: Sprague Dawley rat; test: Open field test of locomotor activity in non-olfactory bulbectomized Sprague Dawley rats; assay type: in vivo; settings: 10 mg/kg s.c. 30 min before 30 min test, vs vehicle
Excerpt: Significant changes in locomotor activity may indicate an abnormal response to a drug (e.g., psychomotor retardation, agitation or behavioral sensitization). The Open field test is a commonly used qualitative and quantitative measure of general locomotor activity and willingness to explore in rodents. The objective of this study is to evaluate the effect of Compound-1 on locomotor activity in the (non-olfactory bulbectomized) rat. This study serves as a control experiment for the agitation and anxiety assays described above.
The study design included 2 treatment groups. Rats were randomized into their respective treatments. The experiment was carried out on a single day.
as §3, with “Sixteen” for “Forty-four”
as §4
Rats were allowed to acclimate to the facility for 1 week before behavioral testing. Rats were placed in the Open field arena 30 minutes post-drug administration for a 30 min test. This experiment was run under dim light and low white noise conditions.
The following parameters were assayed:
1. Distance travelled (cm)
3. Stereotypy counts (arbitrary unit)
4. Number of rears (exploratory behavior)
5. Average velocity (cm/s)
The behavior was recorded and analyzed by an automated tracking system (Med Associates). GraphPad Prism 6.0 was used to prepare graphs and to perform data analysis including one-way ANOVA or t-test analysis of locomotor activity where appropriate.

[6] = Repeat dose general toxicology studies of up to six weeks; assay type: in vivo; settings: rats, daily oral gavage up to six weeks
Excerpt: NMDA antagonists are associated with a wide range of serious toxicities, including neurodegeneration. However, the therapeutic index of an NMDA antagonist can vary widely and is correlated with a property referred to as trapping at the drug binding site within the NMDA receptor channel. Higher trapping agents show increased toxicity relative to lower trapping agents and a reduced therapeutic index. Compounds of Formula I, or a Compound of Table 1, preferably Compound-1, have been evaluated in repeat dose general toxicology studies of up to six weeks in duration in both rats and dogs. In both species, Compounds of Formula I, or a Compound of Table 1, preferably Compound-1, were given daily by oral gavage at doses producing plasma concentrations of the drug that would exceed the expected human therapeutic exposures by at least 30-fold. […] This observation is consistent with the concept of the low trapping nature of Compounds of Formula I, or a Compound of Table 1, preferably Compound-1, and an improved therapeutic index over other NMDA antagonists characterized as high trapping agents.

T1 sequence (Q12879 23-1464, other chains not shown): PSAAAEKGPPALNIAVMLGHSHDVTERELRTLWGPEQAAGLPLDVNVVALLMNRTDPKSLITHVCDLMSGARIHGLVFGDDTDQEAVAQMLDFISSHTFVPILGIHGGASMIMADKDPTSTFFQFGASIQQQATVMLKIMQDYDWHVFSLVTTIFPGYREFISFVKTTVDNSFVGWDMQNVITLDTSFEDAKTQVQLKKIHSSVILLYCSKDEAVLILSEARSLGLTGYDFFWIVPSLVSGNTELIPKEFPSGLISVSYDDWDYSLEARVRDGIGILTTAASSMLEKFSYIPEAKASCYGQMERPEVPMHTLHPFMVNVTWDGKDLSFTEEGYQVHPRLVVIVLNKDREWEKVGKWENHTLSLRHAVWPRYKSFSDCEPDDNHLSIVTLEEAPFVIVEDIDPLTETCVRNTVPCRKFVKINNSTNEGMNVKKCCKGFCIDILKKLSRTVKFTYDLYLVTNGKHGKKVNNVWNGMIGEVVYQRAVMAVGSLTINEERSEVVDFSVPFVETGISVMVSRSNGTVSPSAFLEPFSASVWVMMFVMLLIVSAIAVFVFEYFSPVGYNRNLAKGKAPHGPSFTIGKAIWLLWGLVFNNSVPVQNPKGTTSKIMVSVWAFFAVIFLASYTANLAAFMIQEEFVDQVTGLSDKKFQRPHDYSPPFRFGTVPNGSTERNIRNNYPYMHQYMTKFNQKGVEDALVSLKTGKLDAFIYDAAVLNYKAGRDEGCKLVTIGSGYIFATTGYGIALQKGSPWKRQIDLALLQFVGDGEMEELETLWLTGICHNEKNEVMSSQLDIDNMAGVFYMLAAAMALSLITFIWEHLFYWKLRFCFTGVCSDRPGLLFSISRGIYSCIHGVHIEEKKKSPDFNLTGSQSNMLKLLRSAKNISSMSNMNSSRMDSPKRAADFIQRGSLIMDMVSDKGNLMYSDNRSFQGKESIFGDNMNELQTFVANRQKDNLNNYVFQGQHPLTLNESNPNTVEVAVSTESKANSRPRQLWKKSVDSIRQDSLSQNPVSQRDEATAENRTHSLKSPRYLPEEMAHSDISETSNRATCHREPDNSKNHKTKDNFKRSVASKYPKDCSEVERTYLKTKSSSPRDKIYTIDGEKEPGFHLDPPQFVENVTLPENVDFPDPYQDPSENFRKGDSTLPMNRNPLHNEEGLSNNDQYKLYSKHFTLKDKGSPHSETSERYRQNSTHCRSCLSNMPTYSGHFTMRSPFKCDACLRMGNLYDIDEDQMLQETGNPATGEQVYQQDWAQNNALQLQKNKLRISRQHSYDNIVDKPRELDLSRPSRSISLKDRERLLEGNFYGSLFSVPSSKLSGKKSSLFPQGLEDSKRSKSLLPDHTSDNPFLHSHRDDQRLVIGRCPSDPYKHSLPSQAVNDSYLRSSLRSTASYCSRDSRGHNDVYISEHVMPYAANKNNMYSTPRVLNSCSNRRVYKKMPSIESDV

Row | Compound | IC50 [1] [µM] | also measured
1 | CN1CC[C@@]23CCCCC2[C@@H]1Cc1ccc(-c2ccsn2)cc13 (stereo partly shown) | 15 | –
2 | CN1CC[C@@]23CCCCC2[C@@H]1Cc1ccc(-c2nccs2)cc13 (stereo partly shown) | 33 | –
3 | CN1CC[C@@]23CCCCC2[C@@H]1Cc1ccc(-c2nnc(N)s2)cc13 (stereo partly shown) | 35.5 | –
4 | CN1CC[C@@]23CCCC[C@@H]2[C@@H]1Cc1ccc(Br)cc13 | 49 | –
5 | CN1CC[C@@]23CCCCC2[C@@H]1Cc1ccc(-c2cscn2)cc13 (stereo partly shown) | 50 | –
6 | CN1CC[C@@]23CCCCC2[C@@H]1Cc1ccc(-c2nnc(CO)s2)cc13 (stereo partly shown) | 47.5 | –
7 | CN1CC[C@@]23CCCCC2[C@@H]1Cc1ccc(-c2nnc(C(F)(F)F)s2)cc13 (stereo partly shown) | > 500 | –
8 | O=C(O)c1ccc2c(c1)[C@]13CCCC[C@@H]1[C@H](C2)N(CCc1ccccc1)CC3 | > 500 | –
9 | Cc1nnc(-c2ccc3c(c2)[C@]24CCCCC2[C@H](C3)N(CCc2ccccc2)CC4)s1 (stereo partly shown) | > 500 | –
10 | CN1CC[C@@]23CCCCC2[C@@H]1Cc1ccc(-c2nnc(C(C)(C)C)s2)cc13 (stereo partly shown) | > 500 | –
11 | CN1CC[C@@]23CCCCC2[C@@H]1Cc1ccc(-c2nnc(C(C)(C)O)s2)cc13 (stereo partly shown) | > 500 | –
12 | Cc1nnc(-c2ccc3c(c2)[C@]24CCCC[C@@H]2[C@H](C3)N(C)CC4)o1 | > 500 | –
13 | CN1CC[C@@]23CCCC[C@@H]2[C@@H]1Cc1ccc(C(N)=O)cc13 [Compound-1] | 225 | Ki [2]: 7.4 µM; mode of binding to the PCP binding site ([2]; rat cerebral cortex): binds competitively; locomotor response (distance travelled) in open field [3]: blocked this hyperlocomotor response; burying response (marbles buried) [4]: blocked this burying response; effect on average velocity [5]: no effect; effect on jumping behavior [5]: no effect; effect on locomotor activity (distance travelled) [5]: no effect; effect on rearing [5]: no effect; effect on stereotypy [5]: no effect; clinical changes ([6]; highest doses evaluated): increased bone fractures and abnormalities in incisors; neurodegeneration ([6]; when clinical signs were present): no evidence of neurodegeneration
14 | CN1CC[C@@]23CCCC[C@@H]2[C@@H]1Cc1ccc(-c2nncs2)cc13 [Compound-2, 2-((4bS,9S)-11-methyl-6,7,8,8a,9,10-hexahydro-5H-9,4b-(epiminoethano)phenanthren-3-yl)-1,3,4-thiadiazole hydrochloride] | 225 | –
15 | Cc1nnc(-c2ccc3c(c2)[C@]24CCCC[C@@H]2[C@H](C3)N(C)CC4)s1 [Compound-3, 2-methyl-5-((4bS,9S)-11-methyl-6,7,8,8a,9,10-hexahydro-5H-9,4b-(epiminoethano)phenanthren-3-yl)-1,3,4-thiadiazole hydrochloride] | 94 | –
16 | COc1ccc2c(c1)[C@]13CCCC[C@@H]1[C@H](C2)N(C)CC3 [Dextromethorphan (DMX), Dextromethorphan, reference compound] | 107 | locomotor response (distance travelled) in open field [3]: blocks the locomotor response; burying response (marbles buried) [4]: blocked this burying response
17 | CNC1(c2ccccc2Cl)CCCCC1=O (stereo not shown) [Ketamine, reference compound] | 57.2 | –
18 | c1ccc(C2(N3CCCCC3)CCCCC2)cc1 [Phencyclidine (PCP), Phencyclidine, reference compound] | 7.5 | –
